Assay results taken from article PMC8597046, “Use of Mixture Dosing and Nonlinear Mixed Effect Modeling of Eight Environmental Contaminants in Rabbits to Improve Extrapolation Value of Toxicokinetic Data” (Environmental Health Perspectives, 2021).

Assays:
[1] = TK assay, intravenous mixture dosing: serum concentrations and noncompartmental analysis (sparse data); settings: for Serum concentration: IV
Method in brief: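 Female New Zealand white rabbits received a compound mixture IV via ear-vein catheter; serum sampled sparsely (3 rabbits/time point) from 15 min to 28 d. Noncompartmental sparse-data analysis on mean profiles: linear-trapezoidal AUC, CL as dose/AUC0−inf, half-life from λZ, MRT and VSS.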

[2] = TK assay, oral mixture dosing: serum concentrations and noncompartmental analysis (sparse data); settings: for Serum concentration: oral
Method in brief: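 Female New Zealand white rabbits (10-wk, 2.37±0.14kg) got the compound mixture IV via ear-vein catheter or orally into the mouth; serum sampled 15 min to 28 d, 3 (or 6 at 30 min) rabbits per time. Sparse-data noncompartmental analysis gave AUC (linear trapezoidal), CL or CL_F, half-life and F.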

[3] = Estimation of loading and daily maintenance doses and NLME model simulations; design: species or system female rabbits; settings: oral, DEHP dose for MEHP in serum
Procedure: The ultimate goal of this TK investigation was to compute a dosage regimen that allowed targeted steady-state serum concentrations to be attained rapidly for a planned TK/TD trial on the reprotoxic effect of a mixture of environmental contaminants in female rabbits. […] With that in mind, the loading and the daily maintenance doses of each compound were evaluated using Equations 12 and 13, respectively.
This risk was also the reason why the NLME model was employed to simulate the time development of the amounts of compounds in the central and peripheral compartments following administration of the daily maintenance dose of each compound over the same duration.
The loading and maintenance doses computed to ensure a nominal CSS of 1 ng/mL were scaled to determine the doses to be administrated by oral route to female rabbits to maintain the targeted CSS .

[4] = oral mixture dosing, NCA, n=12, MEHP after oral DEHP

## O=S(=O)(O)C(F)(F)C(F)(F)C(F)(F)C(F)(F)C(F)(F)C(F)(F)C(F)(F)C(F)(F)F [nPFOS, linear isomer of perfluorooctane sulfonate]
[1]; IV mixture dosing, NCA, n=12
  CL: 8.3 mL/day/kg
  MRT: 40.5 days
  VSS: 0.336 L/kg
  VZ: 0.353 L/kg
[1]; rabbit 1, 0.30 h
  Serum concentration: 320 nM
[1]; rabbit 1, 4.38 h
  Serum concentration: 280 nM
[1]; rabbit 1, 24.03 h
  Serum concentration: 260 nM
[1]; rabbit 2, 0.28 h
  Serum concentration: 430 nM
[1]; rabbit 2, 4.05 h
  Serum concentration: 280 nM
[1]; rabbit 3, 0.35 h
  Serum concentration: 380 nM
[1]; rabbit 3, 4.05 h
  Serum concentration: 370 nM
[1]; rabbit 4, 0.62 h
  Serum concentration: 350 nM
[1]; rabbit 4, 72.00 h
  Serum concentration: 290 nM
[1]; rabbit 5, 0.75 h
  Serum concentration: 380 nM
[1]; rabbit 5, 72.03 h
  Serum concentration: 310 nM
[1]; rabbit 6, 0.57 h
  Serum concentration: 360 nM
[1]; rabbit 6, 71.97 h
  Serum concentration: 330 nM
[1]; rabbit 7, 11.98 h
  Serum concentration: 290 nM
[1]; rabbit 7, 168.00 h
  Serum concentration: 270 nM
[1]; rabbit 8, 12.02 h
  Serum concentration: 240 nM
[1]; rabbit 8, 167.92 h
  Serum concentration: 230 nM
[1]; rabbit 9, 11.97 h
  Serum concentration: 310 nM
[1]; rabbit 9, 168.00 h
  Serum concentration: 280 nM
[1]; rabbit 10, 671.96 h
  Serum concentration: 150 nM
[1]; rabbit 11, 672.00 h
  Serum concentration: 160 nM
[1]; rabbit 12, 671.83 h
  Serum concentration: 190 nM
[1]; serum, IV mixture dosing, NCA, n=12
  AUC0−inf: 330 µM·h
[1]; serum, IV mixture dosing, NCA, n=12, doses in Table 2 r3, BPSG after BPS dosing
  Cmax: 427 nM
[1]; terminal, IV mixture dosing, NCA, n=12
  half-life: 29.5 days
[2]; NCA
  Oral bioavailability estimated by NCA: greater than 100%
[2]; oral mixture dosing, NCA, n=12
  CL_F (apparent clearance): 4.99 mL/day/kg
[2]; [4]
  MRT: 69.92 days
  Tmax: 1 days
  VZ_F (apparent volume of distribution associated to the terminal phase): 0.359 L/kg
[2]; rabbit 13, 4.30 h, MEHP after oral DEHP
  Serum concentration: 710 nM
[2]; rabbit 14, 0.37 h, MEHP after oral DEHP
  Serum concentration: 230 nM
[2]; rabbit 14, 4.17 h, MEHP after oral DEHP
  Serum concentration: 890 nM
[2]; rabbit 15, 4.05 h, MEHP after oral DEHP
  Serum concentration: 1040 nM
[2]; rabbit 15, 23.98 h, MEHP after oral DEHP
  Serum concentration: 1280 nM
[2]; rabbit 16, 0.55 h, MEHP after oral DEHP
  Serum concentration: 140 nM
[2]; rabbit 16, 72.00 h, MEHP after oral DEHP
  Serum concentration: 1100 nM
[2]; rabbit 17, 0.53 h, MEHP after oral DEHP
  Serum concentration: 120 nM
[2]; rabbit 17, 72.00 h, MEHP after oral DEHP
  Serum concentration: 1540 nM
[2]; rabbit 18, 0.55 h, MEHP after oral DEHP
  Serum concentration: 290 nM
[2]; rabbit 18, 71.96 h, MEHP after oral DEHP
  Serum concentration: 1250 nM
[2]; rabbit 19, 12.00 h, MEHP after oral DEHP
  Serum concentration: 660 nM
[2]; rabbit 19, 168.02 h
  Serum concentration: 1010 nM
[2]; rabbit 20, 12.00 h, MEHP after oral DEHP
  Serum concentration: 690 nM
[2]; rabbit 20, 168.00 h
  Serum concentration: 1070 nM
[2]; rabbit 21, 12.00 h, MEHP after oral DEHP
  Serum concentration: 810 nM
[2]; rabbit 21, 168.00 h
  Serum concentration: 1060 nM
[2]; rabbit 22, 672.02 h
  Serum concentration: 450 nM
[2]; rabbit 23, 671.96 h
  Serum concentration: 820 nM
[2]; rabbit 24, 672.02 h
  Serum concentration: 1020 nM
[2]; serum, oral mixture dosing, NCA, n=12, MEHP after oral DEHP
  AUC0−inf: 1,919 μmol×h/L
[2]; serum, oral mixture dosing, NCA, n=12, doses in Table 3 r3, MEHP measured after oral DEHP, BPSG after BPS
  Cmax: 1300 nM
[3]; to maintain serum concentration of 1 ng/mL, daily CL×Css/F
  Daily maintenance dose: 0.0077 µg/kg
[3]; to rapidly attain serum concentration of 1 ng/mL, Vss×Css/F
  Loading dose: 0.37 µg/kg
